Reference: patent US20240317735A1, “HYDROISOQUINOLINE OR HYDRONAPHTHYRIDINE COMPOUNDS FOR THE TREATMENT OF AUTOIMMUNE DISEASE” (Hoffmann-La Roche Inc., priority 2020, published 2024)

Target: T1, hERG channel (Homo sapiens, UniProt Q12809)
T1 construct: expressed in transfected cells; host or cells: CHO (CHOhERG)
Test: hERG channel inhibition assay (patch-clamp, CHOhERG cells)
Assay type: cell-based
Conditions: for IC50 / IC20: CHOhERG cells, whole-cell patch-clamp; for IC20: human, CHO cells stably expressing hERG (CHOhERG); for hERG IC20/TLR7 IC50 / hERG IC20/TLR8 IC50 / hERG IC20/TLR9 IC50: safety ratio; for hERG IC20/TLR7 IC50: hERG IC20 over HEK/hTLR7 IC50; for hERG IC20/TLR8 IC50: hERG IC20 over HEK/hTLR8 IC50; for hERG IC20/TLR9 IC50: hERG IC20 over HEK/hTLR9 IC50
Protocol: The hERG K^+ channels were cloned in humans and stably expressed in a CHO (Chinese hamster ovary) cell line. CHOhERG cells were used for patch-clamp (voltage-clamp, whole-cell) experiments. Cells were stimulated by a voltage pattern to activate hERG channels and conduct IKhERG currents (rapid delayed outward rectifier potassium current of the hERG channel). After the cells were stabilized for a few minutes, the amplitude and kinetics of IKhERG were recorded at a stimulation frequency of 0.1 Hz (6 bpm). Thereafter, the test compound was added to the preparation at increasing concentrations. For each concentration, an attempt was made to reach a steady-state effect, usually, this was achieved within 3-10 min at which time the next highest concentration was applied. The amplitude and kinetics of IKhERG are recorded in each concentration of the drug which were compared to the control values (taken as 100%). (references: Redfern W S, Carlsson L, Davis A S, Lynch W G, MacKenzie I, Palethorpe S, Siegl P K, Strang I, Sullivan A T, Wallis R, Camm A J, Hammond T G. 2003; Relationships between preclinical cardiac electrophysiology, clinical QT interval prolongation and torsade de pointes for a broad range of drugs: evidence for a provisional safety margin in drug development. Cardiovasc. Res. 58:32-45, Sanguinetti MC, Tristani-Firouzi M. 2006; hERG potassium channels and cardiac arrhythmia. Nature 440:463-469, Webster R, Leishman D, Walker D. 2002; Towards a drug concentration effect relationship for QT prolongation and torsades de pointes. Curr. Opin. Drug Discov. Devel. 5:116-26).

T1 sequence (Q12809 whole entry): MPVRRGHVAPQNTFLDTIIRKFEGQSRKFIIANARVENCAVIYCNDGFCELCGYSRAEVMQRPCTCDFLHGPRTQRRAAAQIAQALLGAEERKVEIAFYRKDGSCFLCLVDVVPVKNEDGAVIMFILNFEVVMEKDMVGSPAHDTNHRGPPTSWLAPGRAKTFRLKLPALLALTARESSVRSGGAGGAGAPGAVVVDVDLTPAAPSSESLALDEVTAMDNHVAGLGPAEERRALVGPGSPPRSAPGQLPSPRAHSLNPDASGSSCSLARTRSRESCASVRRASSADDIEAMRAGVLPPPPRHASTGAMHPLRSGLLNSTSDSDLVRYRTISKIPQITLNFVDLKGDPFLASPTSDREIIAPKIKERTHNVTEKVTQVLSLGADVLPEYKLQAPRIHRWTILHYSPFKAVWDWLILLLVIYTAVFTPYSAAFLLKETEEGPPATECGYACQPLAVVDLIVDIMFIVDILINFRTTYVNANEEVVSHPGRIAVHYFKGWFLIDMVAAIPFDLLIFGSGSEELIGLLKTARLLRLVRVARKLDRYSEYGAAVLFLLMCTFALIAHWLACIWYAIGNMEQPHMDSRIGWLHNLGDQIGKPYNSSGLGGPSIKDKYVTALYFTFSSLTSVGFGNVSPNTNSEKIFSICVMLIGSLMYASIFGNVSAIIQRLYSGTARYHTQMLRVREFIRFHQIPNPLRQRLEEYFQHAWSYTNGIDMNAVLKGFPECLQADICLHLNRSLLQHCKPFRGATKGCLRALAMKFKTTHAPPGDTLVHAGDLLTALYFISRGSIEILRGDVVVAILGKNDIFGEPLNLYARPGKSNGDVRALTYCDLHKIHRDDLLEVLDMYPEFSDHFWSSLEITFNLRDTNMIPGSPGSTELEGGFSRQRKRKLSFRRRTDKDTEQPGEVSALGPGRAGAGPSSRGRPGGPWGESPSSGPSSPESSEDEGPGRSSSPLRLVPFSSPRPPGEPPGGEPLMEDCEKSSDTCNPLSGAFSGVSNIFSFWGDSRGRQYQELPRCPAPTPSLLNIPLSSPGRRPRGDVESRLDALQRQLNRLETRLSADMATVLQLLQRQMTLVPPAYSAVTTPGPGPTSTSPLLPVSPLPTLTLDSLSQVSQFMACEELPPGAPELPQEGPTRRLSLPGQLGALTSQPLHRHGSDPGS

SMILES	IC50	IC20	hERG IC20/TLR7 IC50	hERG IC20/TLR8 IC50	hERG IC20/TLR9 IC50
C[C@H]1CN(c2ccnc3c2cnn3C)Cc2ccc(N3C[C@@]4(CCNC4)CC3=O)cc21 (single isomer, unassigned) [Example 53]	> 20 µM	> 10 µM	>555.6	>1666.7	>47.6
C[C@H]1CN(c2ccnc3c2cnn3C)Cc2ccc(N3CC4(CCNCC4)CC3=O)cc21 [Example 16, 2-[(4R)-4-methyl-2-(1-methylpyrazolo[3,4-b]pyridin-4-yl)-3,4-dihydro-1H-isoquinolin-6-yl]-2,8-diazaspiro[4.5]decan-3-one]	> 20 µM	> 10 µM	>2000.0	>2500.0	>158.7
CO[C@@H]1CN(c2ccc3c(c2)[C@@H](C)CN(c2ccnc4c2cnn4C)C3)C[C@H]1N [Example 20, (3R,4R)-4-methoxy-1-[(4R)-4-methyl-2-(1-methylpyrazolo[3,4-b]pyridin-4-yl)-3,4-dihydro-1H-isoquinolin-6-yl]pyrrolidin-3-amine]	> 20 µM	6.2 µM	2066.7	364.7	25.9
C[C@H]1CN(c2ccnc3c2cnn3C)Cc2ccc(N3CC4(CNCCO4)C3)cc21 [Example 21, 2-[(4R)-4-methyl-2-(1-methylpyrazolo[3,4-b]pyridin-4-yl)-3,4-dihydro-1H-isoquinolin-6-yl]-5-oxa-2,8-diazaspiro[3.5]nonane]	> 20 µM	> 10 µM	>1428.6	>714.3	>26.9
C[C@H]1CN(c2ccnc3c2cnn3C)Cc2ccc(N3C[C@@H]4CNCCN4C3=O)cc21 [Example 25, (8aS)-2-[(4R)-4-methyl-2-(1-methylpyrazolo[3,4-b]pyridin-4-yl)-3,4-dihydro-1H-isoquinolin-6-yl]-1,5,6,7,8,8a-hexahydroimidazo[1,5-a]pyrazin-3-one]	> 20 µM	> 10 µM	>666.7	>33333.3	>34.4
Cc1cc(N2Cc3ccc(OC[C@H]4CNCCN4)cc3[C@@H](C)C2)c2cnn(C)c2n1 [Example 30, (4R)-2-(1,6-dimethylpyrazolo[3,4-b]pyridin-4-yl)-4-methyl-6-[[(2R)-piperazin-2-yl]methoxy]-3,4-dihydro-1H-isoquinoline]	> 20 µM	6.5 µM	175.7	3250.0	73.9
C[C@H]1CN(c2ccnc3c2cnn3C)Cc2ccc(N3CC4(CNC4)CC3=O)cc21 [Example 34, 6-[(4R)-4-methyl-2-(1-methylpyrazolo[3,4-b]pyridin-4-yl)-3,4-dihydro-1H-isoquinolin-6-yl]-2,6-diazaspiro[3.4]octan-7-one]	> 20 µM	> 10 µM	>384.6	>384.6	>50.5
C[C@H]1CN(c2ccnc3c2cnn3C)Cc2ccc(OCCN3CCNCC3)cc21 [Example 40, (4R)-4-methyl-2-(1-methylpyrazolo[3,4-b]pyridin-4-yl)-6-(2-piperazin-1-ylethoxy)-3,4-dihydro-1H-isoquinoline]	> 20 µM	> 10 µM	>1250.0	>1428.6	>30.7
C[C@H]1CN(c2ccnc3c2cnn3C)Cc2ccc(O[C@@H]3C[C@H]4CNCCN4C3)cc21 [Example 42, (4R)-4-methyl-2-(1-methylpyrazolo[3,4-b]pyridin-4-yl)-6-[[(7R,8aS)-1,2,3,4,6,7,8,8a-octahydropyrrolo[1,2-a]pyrazin-7-yl]oxy]-3,4-dihydro-1H-isoquinoline]	> 20 µM	> 10 µM	>3333.3	>5000.0	>25.1
C[C@H]1CN(c2ccnc3c2cnn3C)Cc2ccc(OC[C@@H]3CNCCN3C)cc21 [Example 44, (4R)-4-methyl-2-(1-methylpyrazolo[3,4-b]pyridin-4-yl)-6-[[(2S)-1-methylpiperazin-2-yl]methoxy]-3,4-dihydro-1H-isoquinoline]	> 20 µM	> 10 µM	>666.7	>2000.0	>42.7
Cc1cc(N2Cc3cnc(O[C@@H]4C[C@H]5CNCCN5C4)cc3[C@@H](C)C2)c2cnn(C)c2n1 [Example 76, (4R)-2-(1,6-dimethylpyrazolo[3,4-b]pyridin-4-yl)-4-methyl-6-[[(7R,8aS)-1,2,3,4,6,7,8,8a-octahydropyrrolo[1,2-a]pyrazin-7-yl]oxy]-3,4-dihydro-1H-2,7-naphthyridine]	> 20 µM	> 10 µM	>526.3	>625.0	>69.4
Cc1cc(N2Cc3cnc(OCCN4CCNCC4)cc3[C@@H](C)C2)c2cnn(C)c2n1 [Example 77, (4R)-2-(1,6-dimethylpyrazolo[3,4-b]pyridin-4-yl)-4-methyl-6-(2-piperazin-1-ylethoxy)-3,4-dihydro-1H-2,7-naphthyridine]	> 20 µM	> 10 µM	>526.3	>625.0	>69.4
Cc1cc(N2Cc3cnc(N4CC[C@@H](N)[C@H](F)C4)cc3[C@@H](C)C2)c2cnn(C)c2n1 [Example 80, (3R,4R)-3-fluoro-1-[(5R)-7-(1,6-dimethylpyrazolo[3,4-b]pyridin-4-yl)-5-methyl-6,8-dihydro-5H-2,7-naphthyridin-3-yl]piperidin-4-amine]	> 20 µM	> 10 µM	>833.3	>294.1	>137.0
